Key:
[1] = system: mice bearing PSMA-expressing LNCAP cancer xenografts; assay: Biodistribution of 68Ga-labeled compounds; assay type: in vivo
Description: (§1) Imaging and biodistribution experiments were performed using NODSCID 1L2RyKO male mice. Mice were anesthetized by inhalation with 2% isoflurane in oxygen, and implanted subcutaneously with 1×10^7 LNCaP cells behind left shoulder. Mice were imaged or used in biodistribution studies when the tumor grew up to reach 5-8 mm in diameter during 5-6 weeks.
For biodistribution studies, the mice were injected with the radiotracer as described above. At predetermined time points (1 or 3 h), the mice was anesthetized with 2% isoflurane inhalation, and euthanized by CO2 inhalation. Blood was withdrawn immediately from the heart, and the organs/tissues of interest were collected. The collected organs/tissues were weighed and counted using an automatic gamma counter. The uptake in each organ/tissue was normalized to the injected dose using a standard curve, and expressed as the percentage of the injected dose per gram of tissue (% ID/g).

[2] = system: mice bearing LNCaP tumor xenografts; assay: PET/CT imaging of 68Ga-labeled compounds; assay type: in vivo; conditions: PET/CT images
Description: 2.17 PET/CT Imaging and Biodistribution
as §1
PET imaging experiments were conducted using Siemens Inveon micro PET/CT scanner. Each tumor bearing mouse was injected 6-8 MBq of 68Ga-labeled tracer through the tail vein under anesthesia (2% isoflurane in oxygen). The mice were allowed to recover and roam freely in their cage. After 50 min, the mice were sedated again with 2% isoflurane in oxygen inhalation and positioned in the scanner. A 10-min CT scan was conducted first for localization and attenuation correction after segmentation for reconstructing the PET images. Then, a 10-min static PET imaging was performed to determined uptake in tumor and other organs. The mice were kept warm by a heating pad during acquisition. For imaging studies acquired at 3 h post-injection (p.i.), the mice were placed in the micro PET/CT scanner at 170 min p.i. Then, the CT acquisitions were conducted as described above, a 15-min static PET imaging was performed to determined uptake in tumor and other organs.

Adrenal glands uptake ([1]; 1 h post-injection): 2.19 ± 0.76 % ID/g
Blood uptake ([1]; 1 h post-injection): 1.37 ± 0.23 % ID/g
Bone uptake ([1]; 1 h post-injection): 0.15 ± 0.06 % ID/g
Brain uptake ([1]; 1 h post-injection): 0.03 ± 0.01 % ID/g
Fat uptake ([1]; 1 h post-injection): 0.61 ± 0.09 % ID/g
Heart uptake ([1]; 1 h post-injection): 0.40 ± 0.07 % ID/g
Intestine uptake ([1]; 1 h post-injection): 0.33 ± 0.07 % ID/g
Kidneys uptake ([1]; 1 h post-injection): 81.6 ± 12.6 % ID/g
Lacrimal uptake ([1]; 1 h post-injection): 0.08 ± 0.03 % ID/g
Liver uptake ([1]; 1 h post-injection): 0.39 ± 0.09 % ID/g
Lungs uptake ([1]; 1 h post-injection): 1.39 ± 0.27 % ID/g
Muscle uptake ([1]; 1 h post-injection): 0.33 ± 0.15 % ID/g
Pancreas uptake ([1]; 1 h post-injection): 0.47 ± 0.26 % ID/g
Salivary uptake ([1]; 1 h post-injection): 1.17 ± 0.27 % ID/g
Seminal uptake ([1]; 1 h post-injection): 0.81 ± 0.94 % ID/g
Spleen uptake ([1]; 1 h post-injection): 1.12 ± 0.19 % ID/g
Stomach uptake ([1]; 1 h post-injection): 0.10 ± 0.03 % ID/g
Tail uptake ([1]; 1 h post-injection): 0.84 ± 0.14 % ID/g
Testes uptake ([1]; 1 h post-injection): 0.42 ± 0.05 % ID/g
Thyroid uptake ([1]; 1 h post-injection): 0.58 ± 0.11 % ID/g
Tumor uptake ([1]; 1 h post-injection): 13.6 ± 2.16 % ID/g
Tumor:Blood ratio ([1]; 1 h post-injection): 10.1 ± 1.91
Tumor:Muscle ratio ([1]; 1 h post-injection): 49.2 ± 24.2
Tumor:kidney ratio ([1]; 1 h post-injection): 0.17 ± 0.02
Urine uptake ([1]; 1 h post-injection): 349 ± 209 % ID/g
Adrenal glands uptake ([1]; 3 h post-injection): 0.38 ± 0.06 % ID/g
Blood uptake ([1]; 3 h post-injection): 0.25 ± 0.04 % ID/g
Bone uptake ([1]; 3 h post-injection): 0.01 ± 0.01 % ID/g
Brain uptake ([1]; 3 h post-injection): 0.01 ± 0.00 % ID/g
Fat uptake ([1]; 3 h post-injection): 0.21 ± 0.01 % ID/g
Heart uptake ([1]; 3 h post-injection): 0.07 ± 0.02 % ID/g
Intestine uptake ([1]; 3 h post-injection): 0.19 ± 0.02 % ID/g
Kidneys uptake ([1]; 3 h post-injection): 22.3 ± 9.97 % ID/g
Lacrimal uptake ([1]; 3 h post-injection): 0.01 ± 0.01 % ID/g
Liver uptake ([1]; 3 h post-injection): 0.17 ± 0.02 % ID/g
Lungs uptake ([1]; 3 h post-injection): 0.28 ± 0.07 % ID/g
Muscle uptake ([1]; 3 h post-injection): 0.11 ± 0.11 % ID/g
Pancreas uptake ([1]; 3 h post-injection): 0.09 ± 0.03 % ID/g
Salivary uptake ([1]; 3 h post-injection): 0.20 ± 0.07 % ID/g
Seminal uptake ([1]; 3 h post-injection): 0.12 ± 0.08 % ID/g
Spleen uptake ([1]; 3 h post-injection): 0.24 ± 0.08 % ID/g
Stomach uptake ([1]; 3 h post-injection): 0.05 ± 0.01 % ID/g
Tail uptake ([1]; 3 h post-injection): 0.24 ± 0.14 % ID/g
Testes uptake ([1]; 3 h post-injection): 0.13 ± 0.08 % ID/g
Thyroid uptake ([1]; 3 h post-injection): 0.16 ± 0.09 % ID/g
Tumor uptake ([1]; 3 h post-injection): 14.5 ± 2.12 % ID/g
Tumor:Blood ratio ([1]; 3 h post-injection): 58.1 ± 12.6
Tumor:Muscle ratio ([1]; 3 h post-injection): 223 ± 122
Tumor:kidney ratio ([1]; 3 h post-injection): 1.12 ± 1.30
Urine uptake ([1]; 3 h post-injection): 191 ± 83.1 % ID/g
excretion pathway [2]: excreted mainly by the renal pathway
Compound: O=C([O-])CN1CCN(CC(=O)[O-])CCN(CC(=O)NCCCC[C@H](NC(=O)CNC(=O)CCc2ccccc2)C(=O)NC[C@H]2CC[C@H](C(=O)N[C@@H](Cc3ccc4ccccc4c3)C(=O)NCCCC[C@H](NC(=O)N[C@@H](CCC(=O)O)C(=O)O)C(=O)O)CC2)CCN(CC(=O)[O-])CC1.[68Ga+3] [^68Ga-HTK03082]
